This assay has as its target T1, human IL-17AA (Homo sapiens, UniProt Q16552).
T1 construct: host or cells: HEK (human embryonic kidney) cells
T1 sequence (Q16552 24-155): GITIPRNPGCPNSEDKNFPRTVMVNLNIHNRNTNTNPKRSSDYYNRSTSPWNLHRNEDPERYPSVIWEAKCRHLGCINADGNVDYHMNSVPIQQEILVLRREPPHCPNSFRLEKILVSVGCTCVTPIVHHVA
Description: IL-8 release assay in human epithelial keratinocytes adult (HEKa). The settings on record: HEKa cells, 3 ng/mL HEK-human IL-17AA + 10 ng/mL human TNFalpha; read-out: Rel EC50 IL-8 release assay. The format is cell-based. The protocol:
Example 138: IL-8 Release Assay in Human Epithelial Keratinocytes Adult (HEKa)
Keratinocytes were seeded at 3500 cells/well in 384-well ViewPlates (Perkin Elmer) in Epilife medium (Thermo Fisher) containing human keratinocyte growth supplement (HKGS) without hydrocortisone and incubated in a humid incubator at 37° C. 5% CO2, overnight. The following day growth medium was removed and 25 μl fresh Epilife medium added. 75 nL test compound in 100% DMSO was added into each well reserved for test compounds, by the use of acoustic pipetting. The remaining wells received an equal volume of DMSO only, as vehicle control, or terfenadine in DMSO, as a positive control for any cytotoxic compounds. Subsequently, another 25 μL Epilife medium was added to each well. Finally, wells containing test compounds and wells prepared to yield maximum stimulation received […] of 9 ng/mL recombinant, human embryonic kidney cell (HEK)-derived human IL-17AA+30 ng/mL human TNF-alpha, in Epilife medium. Wells prepared to define 100% inhibition of IL-17 effects received 25 μL of 30 ng/mL human TNF-alpha alone, in Epilife medium. Final concentrations were 3 ng/mL HEK-human IL-17AA+10 ng/mL human TNFalpha (maximum stimulation) and 10 ng/mL human TNFalpha alone (100% inhibition, Emax), respectively. Cells were incubated for 68-72 hours in the incubator. IL-8 released from the cells was measured by the use of a commercial homogenous time-resolved fluorescence (HTRF) assay (CisBio). 2 μL cell culture supernatant was transferred to a 384-well Proxiplate. 5 μL HTRF reagent was added and the plates incubated sealed in the dark for 3-22 hours at room temperature. Time-resolved fluorescence was read at 665 vs 620 nm, with excitation at 320 nm, and IL-8 levels calculated as percent of controls. Reduction of the amount of secreted IL-8 indicates decreased IL-17 signaling. Concentration response curves were fitted by the use of a four-parameter logistic equation. Relative IC50 and Emax were reported from curves showing acceptable fit (r^2>0.9). Cytotoxicity was measured in the cell-containing Viewplates following addition of 7 μL PrestoBlue (Thermo Fisher) and incubation for 2.5-3 hours at room temperature, by measuring fluorescence at 615 nm (excitation at 535 nm). Fluorescence was directly proportional to the amount of metabolic activity. Reduction of fluorescence signal indicated cytotoxicity.
Compounds of the present invention were tested in the IL-8 release assay in human epithelial keratinocytes.
Compounds having a Relative EC50 of X; wherein X<100 nM; are indicated with *
Compounds having a Relative EC50 of X; wherein 100 nM<X<1000 nM; are indicated with **
Compounds having a Relative EC50 of X; wherein 1000 nM<X; are indicated with ***

As for `CCCn1nccc1C(=O)N[C@H](C(=O)Nc1ccc(-c2c(C3CC3)n[nH]c2C)cc1)C(C1CC1)C1CC1` [Example 391, N-[(1S)-2,2-dicyclopropyl-1-[[4-(3-cyclopropyl-5-methyl-1H-pyrazol-4-yl)phenyl]carbamoyl]ethyl]-2-propyl-pyrazole-3-carboxamide], the EC50 (usually the concentration at which the effect is half-maximal) was less than 0.1 µM. As for `CCc1n[nH]c(CC)c1-c1ccc(NC(=O)[C@@H](NC(=O)c2ccnn2CCCO)C(C2CC2)C2CC2)cc1` [Example 393, N-[(1S)-1-(dicyclopropylmethyl)-2-[4-(3,5-diethyl-1H-pyrazol-4-yl)anilino]-2-oxo-ethyl]-2-(3-hydroxypropyl)pyrazole-3-carboxamide], the EC50 is less than 0.1 µM. As for `Cn1cncc1-c1ccc(NC(=O)[C@@H](NC(=O)OC(C)(C)C)C2CCC2)cc1` [Example 92, tert-butyl N-[(1S)-1-cyclobutyl-2-[4-(3-methylimidazol-4-yl)anilino]-2-oxo-ethyl]carbamate], the figure is more than 1 µM; as for `Cc1n[nH]c(C)c1-c1ccc(NC(=O)[C@@H](NC(=O)Cc2ccc(N(C)C)cc2)C2CCCCC2)cc1` [Example 54, (2S)-2-cyclohexyl-2-[[2-(4-dimethylaminophenyl)acetyl]amino]-N-[4-(3,5-dimethyl-1H-pyrazol-4-yl)phenyl]acetamide], 0.1 to 1 µM; as for `CCn1nccc1C(=O)N[C@H](C(=O)Nc1ccc(-c2c(C)n[nH]c2C)cc1)C1CCCCC1` [Example 9, N-[(1S)-1-cyclohexyl-2-[4-(3,5-dimethyl-1H-pyrazol-4-yl)anilino]-2-oxo-ethyl]-2-ethyl-pyrazole-3-carboxamide], less than 0.1 µM. As for `Cn1cncc1-c1ccc(NC(=O)[C@H](Cc2ccccc2Cl)NC(=O)OC(C)(C)C)cc1` [Example 97, tert-butyl N-[(1S)-1-[(2-chlorophenyl)methyl]-2-[4-(3-methylimidazol-4-yl)anilino]-2-oxo-ethyl]carbamate], the figure is more than 1 µM; as for `Cc1ncn(C)c1-c1ccc(NC(=O)[C@@H](NC(=O)c2ccnn2C)C2CCCCCC2)cc1` [Example 336, N-[(1S)-1-cycloheptyl-2-[4-(3,5-dimethylimidazol-4-yl)anilino]-2-oxo-ethyl]-2-methyl-pyrazole-3-carboxamide], 0.1 to 1 µM.

Consider `Cc1n[nH]c(C(C)(C)O)c1-c1ccc(NC(=O)[C@@H](NC(=O)c2ccnn2C)C(c2ccccc2)c2ccccc2)cc1` [Example 435, N-[(1S)-1-benzhydryl-2-[4-[5-(1-hydroxy-1-methyl-ethyl)-3-methyl-1H-pyrazol-4-yl]anilino]-2-oxo-ethyl]-2-methyl-pyrazole-3-carboxamide], for which the EC50 was 0.1 to 1 µM. As for `Cn1cnnc1-c1ccc(NC(=O)[C@@H](NC(=O)c2ccnn2C)C2CCCCC2)cc1` [Example 352, N-[(1S)-1-cyclohexyl-2-[4-(4-methyl-1,2,4-triazol-3-yl)anilino]-2-oxo-ethyl]-2-methyl-pyrazole-3-carboxamide], the figure is more than 1 µM; as for `Cc1n[nH]c(C)c1-c1ccc(NC(=O)[C@@H](NC(=O)c2ccnn2C)C2CC3CCC2CC3)cc1` (single isomer, unassigned) [Example 254], 0.1 to 1 µM; as for `Cc1n[nH]c(C)c1-c1ccc(NC(=O)C(NC(=O)c2ccnn2C(C)C)C2CCCC2C)cc1` (stereo not shown) [Example 251, N-[2-[4-(3,5-dimethyl-1H-pyrazol-4-yl)anilino]-1-(2-methylcyclopentyl)-2-oxo-ethyl]-2-isopropyl-pyrazole-3-carboxamide], less than 0.1 µM. On to `Cc1n[nH]c(C)c1-c1ccc(NC(=O)C(NC(=O)c2ccnn2C)C2CC3CC3C2)cc1` [Example 233, N-[(1S)-1-[(1R,55)-3-bicyclo[3.1.0]2-[4-(3,5-dimethyl-1H-pyrazol-4-yl)anilino]-2-oxo-ethyl]-2-methyl-pyrazole-3-carboxamide], for which the EC50 is 0.1 to 1 µM.

Consider `Cc1n[nH]c(C)c1-c1ccc(NC(=O)[C@@H](NC(=O)c2ccnn2CCCO)[C@@H]2CC(C)(C)CCC2(F)F)cc1` [Example 209, N-[(1S)-1-[(1S)-2,2-difluoro-5,5-dimethyl-cyclohexyl]-2-[4-(3,5-dimethyl-1H-pyrazol-4-yl)anilino]-2-oxo-ethyl]-2-(3-hydroxypropyl)pyrazole-3-carboxamide], for which the EC50 is less than 0.1 µM. Consider `Cc1n[nH]c(C)c1-c1ccc(NC(=O)[C@@H](NC(=O)c2ccnn2[C@@H](C)CO)C(C)C2CCC2)cc1` (single isomer, unassigned) [Example 173], for which the EC50 is less than 0.1 µM. On to `Cc1n[nH]c(C)c1-c1ccc(NC(=O)[C@@H](NC(=O)c2ccnn2C)C2CCC2(C)C)cc1` (single isomer, unassigned) [Example 232], for which the EC50 was 0.1 to 1 µM.

In the case of `Cc1n[nH]c(C)c1-c1ccc(NC(=O)C(NC(=O)c2ccnn2C)C(c2ccccc2)C2CCC2)cc1` (single isomer, unassigned) [Example 299, N-[1-[cyclobutyl(phenyl)methyl]-2-[4-(3,5-dimethyl-1H-pyrazol-4-yl)anilino]-2-oxo-ethyl]-2-methyl-pyrazole-3-carboxamide], the EC50 was less than 0.1 µM. As for `CC(C)n1nccc1C(=O)N[C@H](C(=O)Nc1ccc(-c2c(C3(O)CC3)cnn2C)cc1)C(C1CC1)C1CC1` [Example 368, N-[(1S)-1-(dicyclopropylmethyl)-2-[4-[4-(1-hydroxycyclopropyl)-2-methyl-pyrazol-3-yl]anilino]-2-oxo-ethyl]-2-isopropyl-pyrazole-3-carboxamide], the figure is 0.1 to 1 µM; as for `Cc1[nH]nc(CO)c1-c1ccc(NC(=O)[C@@H](NC(=O)OC(C)(C)C)C2CCCCC2)cc1` [Example 438, tert-butyl N-[(1S)-1-cyclohexyl-2-[4-[5-(hydroxymethyl)-3-methyl-1H-pyrazol-4-yl]anilino]-2-oxo-ethyl]carbamate], 0.1 to 1 µM; as for `Cn1cncc1-c1ccc(NC(=O)[C@H](Cc2cc(C#N)ccc2Cl)NC(=O)OC(C)(C)C)cc1` [Example 307, tert-butyl N-[(1S)-1-[(2-chloro-5-cyano-phenyl)methyl]-2-[4-(3-methylimidazol-4-yl)anilino]-2-oxo-ethyl]carbamate], more than 1 µM. For the compound `Cc1ncn(C)c1-c1ccc(NC(=O)[C@@H](NC(=O)OC2CC2)C(c2ccccc2)c2ccccc2)cc1` [Example 423, Cyclopropyl N-[(1S)-1-benzhydryl-2-[4-(3,5-dimethylimidazol-4-yl)anilino]-2-oxo-ethyl]carbamate], the EC50 is 0.1 to 1 µM.

Regarding `Cc1n[nH]c(C)c1-c1ccc(NC(=O)[C@@H](NC(=O)c2cnn3ccccc23)C2CCCCC2)cc1` [Example 68, N-[(1S)-1-cyclohexyl-2-[4-(3,5-dimethyl-1H-pyrazol-4-yl)anilino]-2-oxo-ethyl]pyrazolo[1,5-a]pyridine-3-carboxamide], the EC50 was in the range of 0.1 to 1 µM. Regarding `Cc1n[nH]c(C)c1-c1ccc(NC(=O)[C@@H](NC(=O)c2ccnn2CCO)C(C2CC2)C2CC2)cc1` [Example 183, N-[(1S)-1-(dicyclopropylmethyl)-2-[4-(3,5-dimethyl-1H-pyrazol-4-yl)anilino]-2-oxo-ethyl]-2-(2-hydroxyethyl)pyrazole-3-carboxamide], the EC50 fell in the range of 0.1 to 1 µM.

As for `Cc1n[nH]c(C)c1-c1ccc(NC(=O)[C@@H](NC(=O)c2ccnn2CC(C)O)C(C2CC2)C2CC2)cc1` (stereo partly drawn) [Example 388, N-[(1S)-1-(dicyclopropylmethyl)-2-[4-(3,5-dimethyl-1H-pyrazol-4-yl)anilino]-2-oxo-ethyl]-2-(2-hydroxypropyl)pyrazole-3-carboxamide], the EC50 is 0.1 to 1 µM. As for `Cc1ncn(C)c1-c1ccc(NC(=O)[C@@H](NC(=O)OC(C)(C)C)C2CCCCC2)cc1` [Example 83, tert-butyl N-[(1S)-1-cyclohexyl-2-[4-(3,5-dimethylimidazol-4-yl)anilino]-2-oxo-ethyl]carbamate], the figure is 0.1 to 1 µM; as for `Cc1n[nH]c(C)c1-c1ccc(NC(=O)[C@@H](NC(=O)c2ccnn2C(C)CO)C(C)C(C)(C)C)cc1` (single isomer, unassigned) [Example 177], 0.1 to 1 µM.
